# How the values were obtained:
# Assay type in all cases: cell-based
# [1] = system: Panc-1 pancreatic cancer cells; experiment: QTX125-containing combination therapy, hexosaminidase cell viability; details: for EC50: Homo sapiens, PANC-1, Panc-1; for combination index (C.I): Panc-1
# Method: (§1) To assess the oncolytic efficacy of QTX125-containing combination therapies in vitro, colonic, pancreatic, hepatic and ovarian tumour cells were administered sorafenib, gemcitabine or bortezomib at EC25, EC50 and EC75 doses. QTX125 was co-administered in order to produce a dose response curve.
# (§2) To prepare cells for viability assays, cells were transferred into 96 well tissue culture plates (Cultek), and resuspended in 100 µL at the following densities: 10,000 cells/well (Hep-G2 and MiaPaCa-2), 5000 cells/well (Panc-1 and SK-OV-3) or 3000 cells/well (HCT-116). Following 24 hours of incubation, media was removed and replaced with 100 µL media spiked with QTX125 and the test chemotherapeutic agents. Stock solutions for the agents used in this study are shown below in Table 1. Cells were incubated for a further 72 hours before cell viability was assessed using both ALAMAR® and hexosaminidase assays.
# (§3) For the hexosaminidase assay, media containing QTX125 and the test chemotherapeutic agents was removed, and cells were washed once with PBS. 60 μL of substrate solution (containing: 7.5 mM p-nitrophenol-N-acetyl-beta-D-glucosamide [Sigma N-9376], 0.1 M sodium citrate, pH 5.0 and 0.25% Triton X-100) was added to each well and cells were incubated at 37° C. for at least 1 hour. Incubating cells in this manner causes the substrate solution to become bright yellow, at which point 90 μL of developer solution (containing 50 mM Glycine pH 10.4 and 5 mM EDTA) was added to each well. Absorbance at 410 nm was recorded using a plate reader.
# (§4) Control values were normalised to 100% and percentage (%) viability was calculated. Data were used to plot log dose-response curves using a sigmoid dose-response (variable slope) equation. EC50 values were obtained using Equation 1, where ‘X’ is the logarithmic concentration; ‘Y’ is the response output and it is assumed that Y starts at bottom of the graph and reaches the top with an overall sigmoid shape.
# (§5) Cls were obtained using Equation 2, where (Dm) 1 is the ECx concentration of QTX125 and (D) 1 is the ECx concentration of QTX125 in the presence of sorafenib, gemcitabine or bortezomib.
# (§6) In order to assess the oncolytic efficacy of QTX125-containing combination therapies, monotherapy EC25, EC50 and EC75 doses for sorafenib, gemcitabine and bortezomib were calculated (as per Experiment 3) and administered to wells at these fixed concentrations. QTX125 was co-administered at a range of concentrations, in order to plot a dose-response curve such that the EC50 dose of QTX125 could be calculated in the presence of sorafenib/gemcitabine/bortezomib. QTX125 was administered to cells at a starting high-dose, and a 1:1 dilution was completed thereafter. In this part of the study, only the hexosaminidase assay was employed to assess cell viability following treatment with QTX125-containing combination therapies.
# (§7) It should be noted that it was not possible to determine the appropriate concentrations for gemcitabine in all cell lines tested. In cells resistant to gemcitabine, nominal concentrations were used in place of EC25, EC50 and EC75 doses (e.g., nominal doses of 1, 10 and 100 µM were used in Panc-1 and Hep-G2 cells).
# [2] = system: HCT-116 colonic cancer cells; experiment: as above; details: for combination index (C.I.): HCT-116; for EC50: Homo sapiens, HCT-116, HCT-116
# Method: as §1, §2, §3, §4, §5, §6, §7
# [3] = system: HCT-116 colonic cancer cells; experiment: Cell viability, hexosaminidase assay, monotherapy
# Method: In brief, HCT-116, MiaPaCa-2 and Panc-1 cells were thawed in high glucose DMEM (Sigma D5796) with 10% heat-inactivated Foetal Calf Serum (FCS) (PAA, A15-101)). Hep-G2 and SK-Hep1 cells were thawed in Minimum Essential Media (MEM) (Sigma M2279) with 1% non-essential amino acids (Sigma M7145), 2 mM Glutamine (Sigma G7513) and 10% FCS. SK-OV-3 cells were thawed in McCoy's 5A medium (Sigma, M8403) with 15% FCS. All cells were passaged by washing once in cation-free dPBS (Sigma, D1408), and incubated for 3 minutes with trypsin ([0.5 μg/ml]/EDTA [0.2 μg/ml] (Sigma, T4174) in dPBS). Passage was completed at 37° C., and cells were transferred to the appropriate media. Prior to seeding at defined cell density, cells were recovered in medium, centrifuged and resuspended for counting.
# as §2, §3
# A number of appropriate control samples were included. First, absorbance values measured in reagent ‘blank’ wells (containing cell culture medium and colorimetric agent only) were subtracted from ‘test’ sample-containing wells. ‘Blank’ absorbance values were routinely between 5 and 10% of the values recorded in test wells. Absorbance values recorded in test wells were then compared against wells containing (i) cells stimulated with QTX125 only; (ii) cells stimulated with sorafenib, gemcitabine or bortezomib only and/or (iii) unstimulated cells, as appropriate.
# as §4
# Prior to assessing the oncolytic efficacy of QTX125-containing combination therapies, the oncolytic effect of each test agent was assessed in isolation. Dose-response curves were produced by serial dilution (1:1), thereby allowing monotherapy EC50 values to be calculated.
# Chemotherapeutic agents were added to wells at a starting concentration of 100 μM. However, it was quickly determined that it was not possible to use this range for all chemotherapeutic agents tested. An optimization study was therefore completed to identify suitable maximum (‘high’) doses for each agent and in each individual cell line.
# [4] = + bortezomib at EC25 dose (0.007 μM)
# [5] = + bortezomib at EC50 dose (0.009 μM)
# [6] = + bortezomib at EC75 dose (0.015 μM)
# [7] = + gemcitabine at EC25, nominal dose 1 μM
# [8] = + gemcitabine at EC50, nominal dose 10 μM
# [9] = + gemcitabine at EC75, nominal dose 100 μM
# [10] = + sorafenib at EC25 dose (4.1 μM)
# [11] = + sorafenib at EC50 dose (7.4 μM)
# [12] = + sorafenib at EC75 dose (15 μM)
# [13] = + bortezomib at EC25 dose (0.005 μM)
# [14] = + bortezomib at EC50 dose (0.007 μM)
# [15] = + bortezomib at EC75 dose (0.01 μM)
# [16] = + gemcitabine at EC25 dose (0.001 μM)
# [17] = + sorafenib at EC25 dose (2 μM)
# [18] = + sorafenib at EC50 dose (3.6 μM)
# [19] = + sorafenib at EC75 dose (6.5 μM)
compound,measurement,setting,value
"O=C(NO)c1ccc(CNC(=O)c2[nH]c(-c3ccc(O)cc3)cc2-c2ccoc2)cc1 [QTX125, 3-(3-Furyl)-N-{4-[(hydroxyamino)carbonyl]benzyl}-5-(4-hydroxyphenyl)-1 Hpyrrole-2-carboxamide]",EC50,[1]; [4],5030 nM
same,EC50,[1]; [5],5480 nM
same,EC50,[1]; [6],1460 nM
same,EC50,[1]; [7],4110 nM
same,EC50,[1]; [8],2470 nM
same,EC50,[1]; [9],1940 nM
same,EC50,[1]; [10],13700 nM
same,EC50,[1]; [11],14300 nM
same,EC50,[1]; [12],2980 nM
same,EC50,[1]; no second agent (control of Table 5.5.1),10200 nM
same,EC50,[1]; no second agent (control of Table 5.5.2),14700 nM
same,EC50,[1]; no second agent (control of Table 5.5.3),18200 nM
same,combination index (C.I),[1]; [4],0.3 arbitrary units
same,combination index (C.I),[1]; [5],0.3 arbitrary units
same,combination index (C.I),[1]; [6],0.1 arbitrary units
same,combination index (C.I),[1]; [7],0.3 arbitrary units
same,combination index (C.I),[1]; [8],0.2 arbitrary units
same,combination index (C.I),[1]; [9],0.1 arbitrary units
same,combination index (C.I),[1]; [10],1.3 arbitrary units
same,combination index (C.I),[1]; [11],1.4 arbitrary units
same,combination index (C.I),[1]; [12],0.3 arbitrary units
same,combination index (C.I.),[2]; [13],1.0 arbitrary units
same,combination index (C.I.),[2]; [14],1.1 arbitrary units
same,combination index (C.I.),[2]; [15],0.9 arbitrary units
same,combination index (C.I.),[2]; [16],1.1 arbitrary units
same,combination index (C.I.),[2]; [17],0.9 arbitrary units
same,combination index (C.I.),[2]; [18],0.9 arbitrary units
same,combination index (C.I.),[2]; [19],0.9 arbitrary units
same,EC50,[2]; [13],2460 nM
same,EC50,[2]; [14],2540 nM
same,EC50,[2]; [15],2140 nM
same,EC50,[2]; [16],322 nM
same,EC50,[2]; [17],2350 nM
same,EC50,[2]; [18],2210 nM
same,EC50,[2]; [19],2260 nM
same,EC50,[2]; no second agent (control of Table 5.1.1),2590 nM
same,EC50,[2]; no second agent (control of Table 5.1.2),305 nM
same,EC50,[2]; no second agent (control of Table 5.1.3),2360 nM
same,percentage (%) cell viabilities,"[3]; 72 hours of high-dose monotherapy (Table 2: QTX125 1, sorafenib 100, gemcitabine 10, bortezomib 1 μM)",7.3%
same,EC50,"[3]; Homo sapiens, 72 h, read-out: EC50 dose of monotherapy",430 nM

# Reference: patent US20250281453A1, “COMBINATION THERAPIES COMPRISING QTX125” (QUIMATRYX, S.L., priority 2022, published 2025)
